In patent publication US6716846B2, “High affinity ligands for nociceptin receptor ORL-1” (Schering Corporation, priority 1998, dated 2004):

Biological target: human ORL-1 receptor (Homo sapiens, UniProt P41146)
Experiment: Agonist activity: stimulation of [35S]-GTPγS binding
Format: biochemical
Conditions: compound at 100 nM

Chain of human ORL-1 receptor (P41146 whole entry): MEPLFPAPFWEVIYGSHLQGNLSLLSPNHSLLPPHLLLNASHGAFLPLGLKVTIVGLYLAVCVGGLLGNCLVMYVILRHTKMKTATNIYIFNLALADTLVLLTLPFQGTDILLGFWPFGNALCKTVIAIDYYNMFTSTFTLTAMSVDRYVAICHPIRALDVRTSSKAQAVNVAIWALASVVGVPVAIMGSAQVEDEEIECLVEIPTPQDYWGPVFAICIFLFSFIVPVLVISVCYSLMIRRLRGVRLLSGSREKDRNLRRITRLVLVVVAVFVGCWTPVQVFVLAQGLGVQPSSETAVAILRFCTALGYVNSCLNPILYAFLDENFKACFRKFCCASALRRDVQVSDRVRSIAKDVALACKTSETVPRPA

`CNC(=O)NC1(c2ccccc2)CCN(C(c2ccccc2Cl)c2ccccc2Cl)CC1` was tested, and the activation at 0.1 µM was 102%.
